Biological target: human PCSK9 (Homo sapiens, UniProt Q8NBP7)
Experiment: PCSK9 ligand binding assay (TR-FRET): interference with binding of human PCSK9 to human LDLR
Conditions: for IC50: Human PCSK9 Alexa Fluor 647 / Human LDLR extracellular domain-Europium Kryptate; for Max % inhibition: efficacy (Amax), 100% = 1 uM unlabeled human PCSK9, 0% = DMSO
Method in brief: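 Read-out was TR-FRET ratio (665 nm over 615 nm, 330 nm excitation) between Alexa Fluor 647-human PCSK9 (16 nM added) and Europium Kryptate-human LDLR ectodomain (4 nM added). Compound and PCSK9 were mixed 30 min before LDLR, then incubated 2 h. Inhibition was normalised to DMSO and unlabelled-PCSK9 controls, giving IC50 and Amax.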

Sequence of human PCSK9 (Q8NBP7 153-692): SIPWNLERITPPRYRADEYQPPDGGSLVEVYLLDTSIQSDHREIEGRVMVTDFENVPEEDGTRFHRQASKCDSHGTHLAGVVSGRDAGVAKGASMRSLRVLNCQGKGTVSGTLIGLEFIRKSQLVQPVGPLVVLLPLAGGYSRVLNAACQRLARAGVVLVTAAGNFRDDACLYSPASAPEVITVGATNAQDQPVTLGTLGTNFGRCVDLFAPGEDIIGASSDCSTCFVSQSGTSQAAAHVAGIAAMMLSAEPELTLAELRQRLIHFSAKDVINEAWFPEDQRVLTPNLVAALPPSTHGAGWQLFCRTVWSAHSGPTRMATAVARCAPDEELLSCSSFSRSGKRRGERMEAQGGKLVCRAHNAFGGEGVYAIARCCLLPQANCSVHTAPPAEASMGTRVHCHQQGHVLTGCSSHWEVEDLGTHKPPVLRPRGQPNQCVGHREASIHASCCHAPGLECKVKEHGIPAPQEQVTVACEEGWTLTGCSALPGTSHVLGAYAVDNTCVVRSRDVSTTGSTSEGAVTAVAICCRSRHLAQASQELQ
Sequence of human PCSK9 (Q8NBP7 31-152 partner limits assumed): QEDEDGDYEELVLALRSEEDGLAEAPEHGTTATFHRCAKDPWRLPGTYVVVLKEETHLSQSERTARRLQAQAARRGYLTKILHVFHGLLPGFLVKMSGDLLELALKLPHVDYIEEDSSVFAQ

SMILES | IC50 [nM] | Max % inhibition [%]
COC[C@@H]1NC(=O)[C@H](C)N(Cc2c(F)cc(Cl)cc2Oc2ccc(-c3cnc(CN(C)C4CCC4)n3C)cc2)C(=O)C[C@@H](CC(F)(F)F)C(=O)N2CCC[C@@](Cc3ccc(Cl)cc3)(C2)NC1=O [Compound 160, (3S, 7S, 10S, 13R)-6-(4-chloro-2-(4-(2-((cyclobutyl(methyl)amino)methyl)-1-methyl-1H-imidazol-5-yl)phenoxy)-6-fluorobenzyl)-13-(4-chlorobenzyl)-10-(methoxymethyl)-7-methyl-3-(2,2,2-trifluoroethyl)-1,6,9,12-tetraazabicyclo[11.3.1]heptadecane-2,5,8,11-tetraone] | 1.63 | 113.8
C[C@H]1C(=O)N[C@@H](CO)C(=O)N[C@@]2(Cc3ccc(Cl)cc3)CCCN(C2)C(=O)[C@H](C2CC(F)(F)C2)CC(=O)N1Cc1c(F)cc(Cl)cc1Oc1ccc(-c2cnc(CN(C)C)n2C)cc1 [Compound 161, (3S, 7S, 10S, 13R)-6-(4-chloro-2-(4-(2-((dimethylamino)methyl)-1-methyl-1H-imidazol-5-yl)phenoxy)-6-fluorobenzyl)-13-(4-chlorobenzyl)-3-(3,3-difluorocyclobutyl)-10-(hydroxymethyl)-7-methyl-1,6,9,12-tetraazabicyclo[11.3.1]heptadecane-2,5,8,11-tetraone] | 0.33 | 115.5
C[C@H]1C(=O)N[C@@H](CO)C(=O)N[C@@]2(Cc3ccc(Cl)cc3)CCCN(C2)C(=O)[C@H](CC2CC2)CC(=O)N1Cc1ccc(Cl)cc1Oc1ccc(-c2cnc(CN(C)C(C)(C)C)n2C)cc1 [Compound 162, (3R, 7S, 10S, 13R)-6-(2-(4-(2-((tert-butyl(methyl)amino)methyl)-1-methyl-1H-imidazol-5-yl)phenoxy)-4-chlorobenzyl)-13-(4-chlorobenzyl)-3-(cyclopropylmethyl)-10-(hydroxymethyl)-7-methyl-1,6,9,12-tetraazabicyclo[11.3.1]heptadecane-2,5,8,11-tetraone] | 1.3 | 114.4
C[C@H]1C(=O)N[C@@H](CO)C(=O)N[C@@]2(Cc3ccc(Cl)cc3)CCCN(C2)C(=O)[C@H](CC2CC2)CC(=O)N1Cc1c(F)cc(Cl)cc1Oc1ccc(-c2cnc(CN(C)C(C)(C)C)n2C)cc1 [Compound 163, (3R, 7S, 10S, 13R)-6-(2-(4-(2-((tert-butyl(methyl)amino)methyl)-1-methyl-1H-imidazol-5-yl)phenoxy)-4-chloro-6-fluorobenzyl)-13-(4-chlorobenzyl)-3-(cyclopropylmethyl)-10-(hydroxymethyl)-7-methyl-1,6,9,12-tetraazabicyclo[11.3.1]heptadecane-2,5,8,11-tetraone] | 1.21 | 111.6
C[C@H]1C(=O)N[C@@H](CO)C(=O)N(C)[C@@]2(Cc3ccc(Cl)cc3)CCCN(C2)C(=O)[C@H](C2CC(F)(F)C2)CC(=O)N1Cc1c(F)cc(Cl)cc1Oc1ccc(-c2cnc(CN(C)C)n2C)cc1 [Compound 164, (3S, 7S, 10S, 13R)-6-(4-chloro-2-(4-(2-((dimethylamino)methyl)-1-methyl-1H-imidazol-5-yl)phenoxy)-6-fluorobenzyl)-13-(4-chlorobenzyl)-3-(3,3-difluorocyclobutyl)-10-(hydroxymethyl)-7,12-dimethyl-1,6,9,12-tetraazabicyclo[11.3.1]heptadecane-2,5,8,11-tetraone] | 0.9 | 109.6
COC[C@@H]1NC(=O)[C@H](C)N(Cc2c(F)cc(Cl)cc2Oc2ccc(-c3cnc(CNC(C)(C)C)n3C)cc2)C(=O)C[C@@H](C2CC(F)(F)C2)C(=O)N2CCC[C@@](Cc3ccc(Cl)cc3)(C2)N(C)C1=O [Compound 165, (3S,7S,10S,13R)-6-(2-(4-(2-((tert-butylamino)methyl)-1-methyl-1H-imidazol-5-yl)phenoxy)-4-chloro-6-fluorobenzyl)-13-(4-chlorobenzyl)-3-(3,3-difluorocyclobutyl)-10-(methoxymethyl)-7,12-dimethyl-1,6,9,12-tetraazabicyclo[11.3.1]heptadecane-2,5,8,11-tetraone] | 0.93 | 113.3
